Patent US8163770B2, “Benzoxathiin derivative” (MSD. K. K., priority 2005, dated 2012)
Like-named read-outs stand apart in the source and are kept apart here.

Key:
histamine-H3 receptor = target: T1, histamine-H3 receptor (Rattus norvegicus, UniProt Q9QYN8); assay: Test for antagonistic effect to water-drinking action induced by histamine-H3 receptor selective agonist, R-α-methylhistamine; format: in vivo; conditions: 10 mg/kg oral, 2 hours before R-α-methylhistamine, water drunk for 1 hour
T1 construct: from tissue; host or cells: living male rat
Protocol: Under anesthesia with ketamine xylazine (74 and 11 mg/kg intraabdominal single administration), a brain stereotaxic device was set in the third ventricle of a male DS rat (7 to 10-week age, 200 to 300 g), and a chronic guide cannula (26 gauge, length 11 mm) was inserted into it and fixed with a dental resin. The position of the tip of the guide cannula is at 2.2 mm after the bregma on the midline, and at a depth of 8 mm from the surface of the skull. After a restoration term of about 1 week, R-α-methylhistamine (0.3 μg/1 μL/head, 30% propylene glycol liquid) was administered into the third ventricle. The test compound suspended in an aqueous 0.5% methyl cellulose solution was orally administered to the rat before 2 hours before the R-α-methylhistamine administration; and after the R-α-methylhistamine administration, the amount of water drunk by the rat for 1 hour was measured.

[1] = Test for brain/cerebrospinal fluid transition; format: in vivo; conditions: SD male rat, 2 hours after oral administration (10 mg/kg)
Protocol: The test compound was orally or intravenously administered to an SD male rat (7 to 10-week age, 200 to 400 g), and under anesthesia with ether for a predetermined period of time, the whole blood was collected from it through the abdominal aorta thereof using a heparin-processed syringe. Next, the head skin was cut, and a dental 30 G needle was stuck into the cervical spine to run through the subarachnoid cavity. Via a tube connected to the dental 30 G needle, from 50 to 100 μL of the cerebrospinal fluid was collected in a 1-mL syringe, and then the brain was taken out. The blood sample was centrifuged (4° C., 6000 revolutions, 10 minutes), and the resulting plasma was stirred with ethanol (containing an internal standard substance) in an amount of three times thereof added to it. The brain sample was homogenized with 2 mL of water added thereto; and a part of it was taken out and stirred with ethanol (containing an internal standard substance) in an amount of three times thereof added to it. The cerebrospinal fluid was stirred with ethanol (containing an internal standard substance) in an amount of three times thereof added to it. The above samples were left at −20° C. for 20 minutes, then centrifuged (4° C., 12,000 g, 10 minutes), and the supernatant was analyzed through LC/MS/MS. According to a relative calibration curve method, the compound concentration in the plasma, in the brain and in the cerebrospinal fluid was determined.

T1 sequence (Q9QYN8 whole entry): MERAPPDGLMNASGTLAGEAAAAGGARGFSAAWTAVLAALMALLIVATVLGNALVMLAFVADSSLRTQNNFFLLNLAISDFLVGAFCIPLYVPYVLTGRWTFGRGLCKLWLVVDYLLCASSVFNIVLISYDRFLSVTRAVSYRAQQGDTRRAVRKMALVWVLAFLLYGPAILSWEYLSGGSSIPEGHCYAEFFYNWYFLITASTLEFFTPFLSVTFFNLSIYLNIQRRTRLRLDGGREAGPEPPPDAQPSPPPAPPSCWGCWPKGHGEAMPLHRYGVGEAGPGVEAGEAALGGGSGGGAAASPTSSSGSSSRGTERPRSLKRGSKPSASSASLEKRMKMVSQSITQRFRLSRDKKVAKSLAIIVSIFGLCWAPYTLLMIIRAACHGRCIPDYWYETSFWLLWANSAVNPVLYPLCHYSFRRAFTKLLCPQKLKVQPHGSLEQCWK

Question: What does the source list for `C[C@H]1[C@H](c2ccc(OCCCN3CCCC3)cc2)Oc2ccccc2S1(=O)=O` (single isomer, unassigned) [(2S*,3S*)-2,3-dihydro-3-methyl-2-[4-[3-(1-pyrrolidinyl)propoxy]phenyl]-1,4-benzoxathiin-4,4-dioxide]?
Answer: inhibition of the increase in the water drinking induced by R-α-methylhistamine in the third ventricle (histamine-H3 receptor): significantly inhibited; concentration in the brain [1]: 6.96 nmol/g; concentration at 2 h ([1]; cerebrospinal fluid, read-out: concentration in the cerebrospinal fluid): 174 nM; concentration at 2 h ([1]; plasma, read-out: concentration in the plasma): 980 nM
